Experiments:
[1] = molecular target: Coagulation factor X (Homo sapiens, UniProt P00742)
Description: Inhibition of human coagulation factor 10a

[2] = molecular target: Coagulation factor IX (Homo sapiens, UniProt P00740)
[3] = Apparent permeability of the compound at 5 uM after 5 hrs by PAMPA; format: physicochemical
[4] = Cmax in rat at 1 mg/kg, po administered as cassette dose; format: ADME, organism-based; design: dose 1 mg/kg, route oral; settings: in vivo
[5] = Unbound plasma concentration in human at 10 uM measured after 4 hrs by equilibrium dialysis method; format: ADME, cell-free
[6] = test system: Plasma; experiment: Anticoagulant activity in human plasma assessed as concentration required to double activated partial thromboplastin time; format: functional

Coagulation factor X, sequence (P00742 41-179 limits assumed): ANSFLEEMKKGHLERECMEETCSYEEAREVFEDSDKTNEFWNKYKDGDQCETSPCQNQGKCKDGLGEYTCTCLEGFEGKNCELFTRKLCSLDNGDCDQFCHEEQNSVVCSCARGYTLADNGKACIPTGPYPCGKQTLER
Coagulation factor X, sequence (P00742 235-488 limits assumed): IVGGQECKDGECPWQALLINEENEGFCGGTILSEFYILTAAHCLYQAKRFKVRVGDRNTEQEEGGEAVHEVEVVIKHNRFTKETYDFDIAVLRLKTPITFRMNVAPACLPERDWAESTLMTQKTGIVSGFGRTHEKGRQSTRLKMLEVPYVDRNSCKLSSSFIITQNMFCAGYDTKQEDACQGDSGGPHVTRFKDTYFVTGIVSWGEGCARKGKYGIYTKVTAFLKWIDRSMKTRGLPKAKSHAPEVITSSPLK
Coagulation factor IX, sequence (P00740 47-191 limits assumed): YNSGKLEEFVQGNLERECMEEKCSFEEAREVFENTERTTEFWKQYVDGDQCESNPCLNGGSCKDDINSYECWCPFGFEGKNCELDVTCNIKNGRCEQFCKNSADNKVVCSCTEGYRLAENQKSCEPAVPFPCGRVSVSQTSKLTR
Coagulation factor IX, sequence (P00740 227-461 limits assumed): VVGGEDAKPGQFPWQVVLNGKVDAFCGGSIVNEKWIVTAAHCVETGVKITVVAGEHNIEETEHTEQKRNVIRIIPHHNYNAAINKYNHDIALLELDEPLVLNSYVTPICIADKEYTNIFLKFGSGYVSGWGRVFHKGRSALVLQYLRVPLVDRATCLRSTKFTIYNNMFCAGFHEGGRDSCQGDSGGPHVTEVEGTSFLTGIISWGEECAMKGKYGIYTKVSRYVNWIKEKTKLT

Compound	IC50 [1]	IC50 [2]	Papp at 5 h, 5 µM [3]	Cmax [4]	fraction unbound at 4 h, 10 µM [5]	2aPTT [6]
Cc1cc(N2CC[C@@H](NC(=O)c3ccc(-n4cnnc4)cc3Cl)C2)c2onc(N)c2c1Cl	22000 nM	62 nM				
Cc1ncn(-c2ccc(C(=O)N[C@@H]3CCN(c4ncc(Cl)c5c(N)noc45)C3)c(Cl)c2)n1	> 100000 nM	33 nM	11.6 ×10⁻⁶ cm/s	330 ng/mL	0.002	113 µM
Nc1noc2c(N3CC[C@@H](NC(=O)c4ccc(-c5cncnc5)cc4Cl)C3)ncc(Cl)c12	> 100000 nM	26 nM	9.4 ×10⁻⁶ cm/s	380 ng/mL	0.002	101 µM

The next lines start with results.

IC50 [1]	IC50 [2]	Papp at 5 h, 5 µM [3]	Cmax [4]	fraction unbound at 4 h, 10 µM [5]	Compound	2aPTT [6]
> 100000 nM	89 nM				Nc1noc2c(N3CCC(NC(=O)c4ccc(-n5cnnc5)cc4Cl)C3)nccc12 (racemic)	
> 100000 nM	13 nM	1.6 ×10⁻⁶ cm/s	210 ng/mL	0.005	Nc1noc2c(N3CC[C@@H](NC(=O)c4ccc(-n5cnc(CCO)c5)cc4Cl)C3)ncc(Cl)c12	57 µM
